Experimental data: patent US12514862B2, “Testosterone containing pharmaceutical composition” (Diurnal Limited, priority 2020, dated 2026)

Key:
[1] = cited from earlier work
[2] = DITEST-001 single dose cross-over study: serum total testosterone pharmacokinetics; assay type: in vivo, human; conditions: DITEST both doses fed and 200 mg fasted; testosterone undecanoate fed; hypogonadal men
Method: (§1) The study was conducted in male participants from 18 to 80 years of age requiring testosterone replacement therapy for primary or secondary hypogonadism. The study was a randomized, active control, single dose, 2-way cross-over study in 2 cohorts. In each cohort participants who met the entry criteria at screening and baseline were randomized to one of 2 sequences:
(§2) Cohort 1: single dose of 120 mg (3×40 mg) DITEST followed by a single dose of 80 mg (2×40 mg) testosterone undecanoate or a single dose of 80 mg (2×40 mg) testosterone undecanoate followed by a single dose of 120 mg (3×40 mg) DITEST. The 2 treatments were separated by a minimum of a 7-day washout period, with both treatments given in the fed state.
(§3) Cohort 2: single dose of 200 mg (5×40 mg) DITEST (fed) followed by a single dose of 200 mg DITEST (fasted) or a single dose of 200 mg DITEST (fasted) followed by a single dose of 200 mg (5×40 mg) DITEST (fed). The 2 treatments were separated by a minimum of a 7-day washout period.
(§4) Twelve participants were to be recruited into each cohort (note: participants from Cohort 1 could be entered into Cohort 2 after a washout period of at least 3 months between cohorts). Participants were not recruited into Cohort 2 until the results of participants treated in Cohort 1 had been evaluated (this review determined if the intended dose for Cohort 2 needed to be adjusted). […]

[3] = DITEST-001 study: serum testosterone undecanoate and aqueous/lipid fractions of serum; assay type: in vivo, human
From the text: There is an unmet need for a native oral testosterone therapy for men with androgen (testosterone) deficiency. Current therapy for most hypogonadal patients in Europe and the United States of America (USA) is with either intramuscular injections or gels. These therapies have the disadvantages of pain with injections, skin reactions, and potential spread to partners with gels. At the time this study was designed, there was only one oral formulation of testosterone undecanoate on the market in the UK, but at that time this was not approved in the USA. DITEST is a novel formulation of native testosterone. […] Testosterone undecanoate is considered mainly absorbed through intestinal lymphatics, along with dietary lipids, whilst DITEST was formulated to permit absorption without the requirement for dietary lipids. To examine the proportions absorbed through lymphatics, the aqueous and lipid fractions of serum were separated for the measurement of serum testosterone. Since this was a first-in-human study, participants were closely monitored as inpatients during dosing. […]
as §4
(§5) • Testosterone serum concentrations after administration of a single dose of 120 mg or 200 mg DITEST and 80 mg testosterone undecanoate in the fed state, as measured by the primary PK parameters of maximum serum concentration (Cmax) and the area under the curve from 0 to 10 hours (AUC0-10). Secondary Endpoints • Testosterone serum concentrations after administration of a single 200 mg dose of DITEST in the fed and fasted states, as measured by the primary PK parameters of Cmax and AUC0-10. • AEs observed throughout the study. • Changes during the study in vital signs, ECG and safety laboratory data. […]

[4] = DITEST-001 study: safety (TEAEs, SAEs, ECG, vital signs); assay type: in vivo, human
Method: as §1, §2, §3
Twelve participants were to be recruited into each cohort (note: participants from Cohort 1 could be entered into Cohort 2 after a washout period of at least 3 months between cohorts). Participants were not recruited into Cohort 2 until the results of participants treated in Cohort 1 had been evaluated (this review determined if the intended dose for Cohort 2 needed to be adjusted). No other testosterone treatments were allowed for the duration of each cohort (including the washout periods) (note: participants who entered Cohort 1 were able to revert to their usual testosterone treatment, if applicable, on completion of this cohort and prior to screening for Cohort 2, if applicable). Each participant was required to attend the study site for a minimum of either 4 or 5 visits per cohort: a screening assessment, an evaluation of baseline testosterone levels after the washout period from the participant's current medication (only for participants currently on testosterone replacement therapy), both dosing days, and a follow-up visit at the end of the study. On each dosing day, participants were to remain in the study site and PK blood and saliva samples were taken at −0.5, −0.25 (Cohort 1 only), 0, 0.5, 1, 1.5, 2, 2.5, 3, 3.5, 4, 4.5, 5, 5.5, 6, 7, 8, and 10 hours. Further PK blood and saliva samples could be taken at up to 2 additional timepoints per period if deemed necessary based on emerging data. […] If necessary, for practical reasons, participants could stay overnight at the study site or at a nearby hotel the night before and/or the night after the dosing days.
as §5, with “data. Exploratory Endpoints: • To assess the levels of testosterone and DHT in serum. • To assess the levels of testosterone and testosterone undecanoate in the lipid and aqueous fractions of blood (testosterone undecanoate only measured in participants in the testosterone undecanoate arm). • To assess the levels of intact testosterone undecanoate in serum for participants who received testosterone undecanoate. • To compare testosterone concentrations in venous and capillary blood samples collected using the Mitra microsampling device with serum concentrations. • To compare the concentrations of testosterone in saliva with serum concentrations. • To evaluate the concentrations of androstenedione in saliva Statistical Methods” for “data.”

SMILES | Non-aqueous Solubility, Alcohol ([1]; (wt/vol) at 20° C.) [in 5 parts] | Non-aqueous Solubility, Chloroform ([1]; (wt/vol) at 20° C.) [in 2 parts] | Non-aqueous Solubility, Dehydrated alcohol ([1]; (wt/vol) at 20° C.) [in 6 parts] | Non-aqueous Solubility, Dioxane ([1]; (wt/vol) at 20° C.) | Non-aqueous Solubility, Ether ([1]; (wt/vol) at 20° C.) [in 100 parts] | Non-aqueous Solubility, Ethyl oleate ([1]; (wt/vol) at 20° C.) | Non-aqueous Solubility, Vegetable oils ([1]; (wt/vol) at 20° C.) | Aqueous Solubility ([1]; at 20° C. in water) | Serum testosterone levels following dosing [2] | Lipid fraction of serum testosterone undecanoate as part of total serum measurement of testosterone undecanoate ([3]; after 80 mg testosterone undecanoate) | Serum testosterone undecanoate levels relative to the testosterone levels ([3]; after dosing with 80 mg testosterone undecanoate) [fold] | Lipid fraction of testosterone relative to the serum concentration ([3]; single oral dose) | QT prolongation, reported as related to study intervention ([4]; Cohort 1: testosterone undecanoate 80 mg and DITEST 120 mg) | Total number of TEAEs reported ([4]; DITEST 120 mg fed, 200 mg fed and 200 mg fasted, testosterone undecanoate 80 mg fed) | Mean change in diastolic blood pressure ([4]; single doses) [mmHg] | Mean change in heart rate ([4]; single doses) [bpm] | Mean change in systolic blood pressure ([4]; single doses) [mmHg] | SAEs or severe AEs ([4]; single doses)
C[C@]12CC[C@H]3[C@@H](CCC4=CC(=O)CC[C@@]43C)[C@@H]1CC[C@@H]2O [Testosterone, (8R,9S,10R,13S,14S,17S)-17-hydroxy-10,13-dimethyl-1,2,6,7,8,9,11,12,14,15,16,17-dodecahydrocyclopent a[a]phenanthren-3-one] | 1 | 1 | 1 | soluble | 1 | slightly soluble | soluble | <1 mg/mL (insoluble) at 20 °C in water |  |  |  |  |  |  |  |  |  | 
CCCCCCCCCCC(=O)O[C@H]1CC[C@H]2[C@@H]3CCC4=CC(=O)CC[C@]4(C)[C@H]3CC[C@]12C [Testosterone Undecanoate, testosterone undecanoate] |  |  |  |  |  |  |  |  | within the physiological range | over half | 10 | approximately 1/10 | One participant had QT prolongation | 8 | 1.5 | 8.5 | 12.8 | One SAE
